{"source": "patent US10874685B2", "about": "“Pancreatic cancer therapy and diagnosis” (Deutsches Krebsforschungszentrum Stiftung des Öffentlichen …, priority 2014, dated 2020)", "key": {"MIAPaCa-2 xenograft": {"tested_on": "MIAPaCa-2 xenograft", "test": "Combination therapy in NSG mice, MIAPaCa-2 xenograft model", "type": "in vivo", "settings": "i.p. 16 days; pimozide 10 mg/kg daily; gemcitabine 20 mg/kg every 4 days", "from_the_text": "Tumor volumes normalized to initial measurement shown in the y-axis every four days following treatment with either vehicle (gray line), the chemotherapeutic gemcitabine (green line), a combination therapy of 2-deoxy-D-glucose, atorvastatin and pimozide (2DG+ATR+Pim, redline), or a combination therapy of 2DG+ATR+Pim and gemcitabine (2DG+ATR+Pim+Gem, red dashed line) (FIG. 12A). […] Tumor weight (FIG. 12C) and volume of samples (FIG. 12D) harvested following treatment with, from left to right, control (Vehicle), 2DG+ATR, Pim alone, Pim+2DG+ATR, Gem alone, 2DG+ATR+Gem, Pim+Gem, or Pim+2DG+ATR+Gem.\nNOD severe combined immunodeficiency gamma (NSG) mice were subcutaneously injected in the right flank with five million MIAPaCa-2 cells. Once tumors were detectable (200 mm^3), mice were randomized into 8 groups (5 in each group) and treated through intraperitoneal injection as indicated for 16 days. All drugs were given every day whereas gemcitabine was given every 4 days, alone or in combination. Experiment was terminated when control animals became moribund. The growth of tumors was measured every 4 days. Tumors were harvested and photographed. Tumor weights and volumes were measured.\nThe efficacy of the combined treatment approach was investigated using a MIAPaCa-2 xenograft model of pancreatic cancer."}, "[1]": {"tested_on": "locally advanced, unresectable, or metastatic pancreatic adenocarcinoma", "settings": "patients with locally advanced; cited from earlier work"}, "[2]": {"tested_on": "pancreatic cancer cell lines (PANC-1, CFPAC-1, CAPAN-1, MIAPaCa-2, BXPC-3)", "test": "Sulforhodamine B (SRB) cytotoxicity assay on pancreatic cancer cell lines", "type": "cell-based, human", "settings": "increasing concentration, 72 h", "method": "PANC-1, CFPAC-1, CAPAN-1, MIAPaCa-2, BXPC-3 and fibroblast cells were seeded for 24 h and were exposed to increasing concentration of Pimozide and vehicle for 72 h (FIG. 3A). The same procedure was followed for treatment of cancer cell lines with L741 (FIG. 3B). Cell viability was characterized using a SRB assay. Values are the mean+/−SD of six independent experiments.\nFive pancreatic ductal cancer cell lines with various degree of differentiation were obtained from American Type Culture Collection (Rockville, USA) and Normal Human Dermal Fibroblasts (NHDF) obtained from PromoCell. BXPC-3 (moderately differentiated) as well as poorly differentiated human pancreatic cancer cell lines, PANC-1 and MIAPaCa-2, have been established from primary tumor. AsPC-1, CAPAN-1 and CFPAC-1 which represent well differentiated cell lines was isolated from ascites and liver metastasis of pancreas adenocarcinoma. All cell lines contain mutation in P53 whereas K-ras mutation reported in all with the exception of BxPc3. BRCA2 mutation just reported in CAPAN-1 cells.\nSulforhodamine B sodium salt (sigma) was used to assess cell viability and IC50 determination of pancreatic cancer cells. […] Cell viability was specified by using plate reader (TECAN) with measuring of absorbance at 570 and 650 nm (background) in treated or untreated 96 well plate."}, "PANC-1 cells": {"tested_on": "PANC-1 cells", "test": "Wound healing (scratching) assay for cell migration", "type": "cell-based, human", "settings": "PANC-1, increasing concentrations, 10 h", "method": "PANC-1 cells were plated in the chamber were already attached in 12 well plate and allowed to grow for 24 h. Then, a wound was made in the confluent monolayer by removing the chamber. Cells were exposed to increasing concentration of Pimozide (FIG. 6A) or L741 (FIG. 6B) and vehicle for 10 h. Wound gap closure was measured for each drug concentration by comparing the gap at time 0 h to the one at the time 10 h when the gap closed in negative control and normalized to untreated condition.\nPANC-1 cells were seeded into the 35 mm-dish culture-silicon Insert frames from Ibidi where already attached to the 6 well culture plate. When 96-98% confluency was achieved, the insert frames were removed using sterile forceps to reach cell free gap. To create a reference point for subsequent measurements, three different part of the gap was marked on the underside of the plastic. Floating cells and cell debris were washed using PBS, relative culture medium was added to each wells and migration distance was photographed using a Zeiss Axiovert 24 light microscope at zero time in the marked areas. Afterward, the wells were treated by addition of DMSO as control and different increasing concentration of Pim and L741. Plates were then placed into the incubator and the cells were allowed to migrate until the time when the gap for the […] closed (t time). Images were taken from the marked areas again. This assay was performed employing various concentrations of drugs at which maximum 5% viability inhibition was observed after 10 h treatment."}, "[3]": {"tested_on": "KPC-023, KPC-01 and KPC-LM pancreatic cancer cell lines", "test": "Viability of primary and metastatic pancreatic cancer cell lines isolated from KPC mice", "type": "cell-based", "settings": "primary (KPC-023, KPC-01) and metastatic (KPC-LM) lines"}, "MIAPaCa-2 cells": {"tested_on": "MIAPaCa-2 cells", "test": "Orthotopic pancreatic tumor mouse model treated with DRD2 antagonists", "type": "in vivo, mice", "settings": "compared to vehicle", "method": "Two million MIAPaCa-2 cells were resuspended in 10 μL Matrigel (BD Biosciences, San Jose, Calif.) were orthotopically implanted into the tail of the pancreas of 6-week-old Nod scid gamma animals (Jackson Labs, Bar Harbor, Me.) (day 1). When tumors were palpable (day 27), mice were randomized into 2 groups (n=7 in control group and n=9 in haloperidol group) and injected intraperitoneally with either haloperidol (10 mg/kg) or solvent (dimethylsulfoxide [DMSO] control group) for 12 days. The experiment was terminated when control mice appeared moribund. Weight of the animal and final tumor weight and volume were measured."}, "[4]": {"tested_on": "MIAPaCa-2, PANC-1 and AsPC-1 cells", "test": "Glucose uptake measurement (labelled 2-DG) in PDAC cell lines", "type": "cell-based, human", "settings": "all three cell lines; relative to DMSO control", "source_text": "(§1) Measurement of 2-deoxy-D-glucose uptake shown on the y-axis relative to control by PDAC cell lines (MIAPaCa2, left; PANC-1, middle; AsPC1, right) treated with DMSO (C), pimozide (P) or haloperidol (H) (FIG. 10A). Abundance of free cholesterol, as measured by staining with filipin, after treatment with haloperidol (H) or pimozide (P) in PDAC cell lines (MIAPaCa2, left; PANC-1, middle; AsPC1, right) (FIG. 10B top). Representative micrographs of filipin-labelled cholesterol. PDAC (MIAPaCa2, top; PANC-1, middle; AsPC1, bottom) cells were seeded for 24 hours and treated with 10 μM haloperidol (H) or pimozide (P) or DMSO for 18 hours (FIG. 10B bottom). Red-fluorescence represents propidium iodide (PI)-stained nuclei and blue-fluorescence represents filipin-stained cholesterol. mRNA levels of genes relative to R-actin shown on the y-axis involved in cholesterol biosynthesis (from left to right: SREBP1, SREBP2, INSIG1, HMGCR, LDLR) measured by qRT-PCR 18 hours post-treatment with DMSO (C), haloperidol (H) or pimozide (P) in three PDAC cell lines (MIAPaCa2, top; PANC-1, middle; AsPC1, bottom) (FIG. 10C).\nThe induction effect of pimozide or haloperidol on labeled 2-DG uptake in cancer cells were determined from measurement of the fluorescence intensity of cell lysates. […]"}, "[5]": {"tested_on": "MIAPaCa-2, PANC-1 and AsPC-1 cells", "test": "Free cholesterol measurement (Filipin staining) in PDAC cell lines", "type": "cell-based, human", "settings": "10 μM, 18 hours; vs DMSO", "source_text": "as §1\nCancer cells were seeded for 24 hours and treated with pimozide, haloperidol or DMSO for 18 hours. The cells were fixed with paraformaldehyde, stained with Filipin™ and propidium iodide (PI), and photographed. Filipin™ is a fluorescent polyene antibiotic that binds to free cholesterol. […]"}, "[6]": {"tested_on": "SREBP1, SREBP2, INSIG1, HMGCR, LDLR mRNA", "test": "qRT-PCR of cholesterol biosynthesis genes in PDAC cell lines", "type": "cell-based, human", "settings": "qRT-PCR 18 hours post-treatment; relative to actin", "source_text": "as §1\nFor mice xenograft tissue samples and cultured cells, the miRNeasy kit (Qiagen, Valencia, Calif.) was used to extract total RNA. […] Quantification values were calculated according to a standard curve method created from a dilution series. […]"}, "[7]": {"tested_on": "PANC-1, MIAPaCa-2 and AsPC-1 cell lines", "test": "PDAC cell line growth curves under combination therapy", "type": "cell-based, human", "settings": "over time", "source_text": "FIGS. 11A and 11B show PDAC cell line growth curves following combination therapy with DRD2 antagonists, 2-deoxy-D-glucose, and atorvastatin. Percentage cell growth shown on the y-axis following treatment with control (blue line), pimozide (Pim, gray line), atorvastatin and 2-deoxy-D-glucose (ATR+2-DG, red line) and combination of Pim and ATR+2-DG (green line) over time in PANC-1 (top), MIAPaCa-2 (middle) and AsPC-1 (bottom) cell lines (FIG. 11A). Haloperidol (Hal, gray line) is used as the DRD2 antagonist for use alone or in combination with ATR+2-DG as described in A (FIG. 11B). Dosage are indicated for each cell line.\nPDAC cell proliferation was measured during pharmacological inhibition of DRD2 alone and in combination with blockade of glycolysis and cholesterol synthesis. To suppress glycolysis, 2-DG, a glucose analog which is a competitor inhibitor of glucose metabolism, was used. To inhibit cholesterol synthesis, atorvastatin (ATR), a competitive inhibitor of 3-hydroxy-3-methylglutaryl-coenzyme A (HMG-CoA) reductase in the cholesterol biosynthesis pathway was used."}, "pituitary tumor cells": {"tested_on": "pituitary tumor cells", "settings": "after treatment; cited from earlier work"}}, "note": "“Also recorded” adds a separate entry of the source.", "data": [{"smiles": "Nc1ccn([C@@H]2O[C@H](CO)[C@@H](O)C2(F)F)c(=O)n1", "note": "[gemcitabine, 4-amino-1-[(2R,4R,5R)-3,3-difluoro-4-hydroxy-5-(hydroxymethyl)oxolan-2-yl]pyrimidin-2-one]", "values": [{"measurement": "tumor volume", "setting": "MIAPaCa-2 xenograft", "result": "reduced tumor weight and volume"}, {"measurement": "tumor weight", "setting": "MIAPaCa-2 xenograft", "result": "reduced tumor weight"}, {"measurement": "1-year survival rate", "setting": "[1]", "result": 21, "unit": "%"}, {"measurement": "median overall survival (OS)", "setting": "[1]", "result": 6, "unit": "months"}]}, {"smiles": "OC1(c2ccc(Cl)cc2)CCN(Cc2c[nH]c3ccccc23)CC1", "note": "[L-741,626]", "values": [{"measurement": "cell viability of pancreatic cancer cell lines", "setting": "[2]", "result": "Specific toxicity effect; also recorded: dose dependent toxicity effect"}, {"measurement": "tumor cell migration (wound gap closure)", "setting": "PANC-1 cells", "result": "tumor cell migration was affected"}, {"measurement": "tumor cell migration (wound gap closure)", "setting": "PANC-1 cells; listed as L741", "result": "dose dependent inhibitory effect"}, {"measurement": "viability of KPC mouse pancreatic cancer cell lines", "setting": "[3]", "result": "sensitive; also recorded: Dose-dependent effects"}]}, {"smiles": "O=C(CCCN1CCC(O)(c2ccc(Cl)cc2)CC1)c1ccc(F)cc1", "note": "[haloperidol]", "values": [{"measurement": "metastatic dissemination", "setting": "MIAPaCa-2 cells", "result": "reduces tumor volume, metastasis"}, {"measurement": "tumor volume", "setting": "MIAPaCa-2 cells; haloperidol 10 mg/kg intraperitoneally for 12 days", "result": "reduces tumor volume"}, {"measurement": "viability of KPC mouse pancreatic cancer cell lines", "setting": "[3]", "result": "sensitive; also recorded: Dose-dependent effects"}, {"measurement": "glucose uptake (intracellular labelled 2-deoxy-D-glucose)", "setting": "[4]", "result": "elevated uptake of glucose; also recorded: enhanced glucose and cholesterol uptake"}, {"measurement": "abundance of free cholesterol (Filipin staining)", "setting": "[5]", "result": "increased the abundance of free cholesterol; also recorded: enhanced glucose and cholesterol uptake"}, {"measurement": "expression of genes involved in lipogenesis / cholesterol biosynthesis", "setting": "[6]", "result": "inducing expression of genes involved in lipogenesis"}, {"measurement": "cell growth", "setting": "[7]", "result": "reduced cell growth"}]}, {"smiles": "NCCc1ccc(O)c(O)c1", "note": "[dopamine]", "values": [{"measurement": "cancer cell viability", "setting": "pituitary tumor cells", "result": "decreased significantly"}]}]}
